How the values were obtained:
MEK = assay: Cellular Assay for Measuring MEK Inhibition (inhibition of ERK phosphorylation in C26 cells, Western blot); assay type: cell-based, murine; details: inhibition of ERK phosphorylation in murine colon 26 (C26) carcinoma cells; determined graphically from dose response curve
Summary of the method: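 Exponentially growing murine colon 26 (C26) carcinoma cells treated with varying compound concentrations at 37° C, then lysed. Western blot with antibody to dually phosphorylated ERK1/ERK2; blots stripped and re-probed for total ERK1/ERK2.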

Row | Structure (SMILES) | IC50 (MEK) | melting point
1 | O=C(NOCCO)c1ccc(F)c(F)c1Nc1ccc(Br)cc1F [Example 22, 2-(4-Bromo-2-fluoro-phenylamino)-3,4-difluoro-N-(2-hydroxy-ethoxy)-benzamide] | 0.0077 µM | 146.1 to 146.4 °C
2 | O=C(NOCCO)c1ccc(F)c(F)c1Nc1ccc(Cl)cc1F [Example 24, 2-(4-Chloro-2-fluoro-phenylamino)-3,4-difluoro-N-(2-hydroxy-ethoxy)-benzamide] | 0.026 µM | 142.1 to 142.5 °C
3 | O=C(NOCCO)c1ccc(F)c(F)c1Nc1ccccc1F [Example 25, 3,4-Difluoro-2-(2-fluoro-phenylamino)-N-(2-hydroxy-ethoxy)-benzamide] | 0.052 µM | 129.6 to 130.4 °C
4 | Cc1cc(I)ccc1Nc1c(C(=O)NOCCCO)cc(Cl)c(F)c1F [Example 29, 5-Chloro-3,4-difluoro-N-(3-hydroxy-propoxy)-2-(4-iodo-2-methyl-phenylamino)-benzamide] | 0.047 µM | 155.2 to 156.6 °C
5 | O=C(NOCCCCO)c1ccc(F)c(F)c1Nc1ccc(I)cc1F [Example 33] | 0.005 µM | 131.4 to 131.9 °C
6 | Cc1cc(I)ccc1Nc1c(C(=O)NOCC(O)CO)cc(Cl)c(F)c1F (centres unmarked) [Example 35, 5-Chloro-N-(2,3-dihydroxy-propoxy)-3,4-difluoro-2-(4-iodo-2-methyl-phenylamino)-benzamide] | 0.006 µM | 67 to 69 °C
7 | Cc1cc(I)ccc1Nc1c(C(=O)NOCCC(O)CO)cc(Cl)c(F)c1F (centres unmarked) [Example 36, 5-Chloro-N-(3,4-dihydroxy-butoxy)-3,4-difluoro-2-(4-iodo-2-methyl-phenylamino)-benzamide] | 0.053 µM | 135 to 138 °C
8 | O=C(NOCCC(O)CO)c1cc(Cl)c(F)c(F)c1Nc1ccc(I)cc1Cl (centres unmarked) [Example 37, 5-Chloro-2-(2-chloro-4-iodo-phenylamino)-N-(3,4-dihydroxy-butoxy)-3,4-difluoro-benzamide] | 0.03 µM | 146 to 148 °C
9 | O=C(NOCC(O)CO)c1cc(F)c(F)c(F)c1Nc1ccc(I)cc1F (centres unmarked) [Example 43, N-(2,3-Dihydroxy-propoxy)-3,4,5-trifluoro-2-(2-fluoro-4-iodo-phenylamino)-benzamide] | 0.0018 µM | 157 to 160 °C
10 | O=C(NOCC(O)CO)c1ccc(F)c(F)c1Nc1ccc(Br)cc1F (centres unmarked) [Example 44] | 0.003 µM | 110 to 117 °C (dec.)
11 | CC1(C)OCC(ONC(=O)c2ccc(F)c(F)c2Nc2ccc(I)cc2F)CO1 [Example 46, N-(2,2-Dimethyl-[1,3]dioxan-5-yloxy)-3,4-difluoro-2-(2-fluoro-4-iodo-phenylamino)-benzamide] | 0.582 µM | 154 to 155 °C
12 | O=C(NOC[C@@H](O)CO)c1cc(Cl)c(F)c(F)c1Nc1ccc(I)cc1Cl [Example 52, 5-Chloro-2-(2-chloro-4-iodo-phenylamino)-N-[(S)-2,3-dihydroxy-propoxy]-3,4-difluoro-benzamide] | 0.0078 µM | 153 to 154 °C
13 | C=COCCONC(=O)c1cc(Br)c(F)c(F)c1Nc1ccc(I)cc1F [Example 61, 5-Bromo-3,4-difluoro-2-(2-fluoro-4-iodo-phenylamino)-N-(2-vinyloxy-ethoxy)-benzamide] | 0.15 µM | 128 to 130 °C
14 | CC(C)(CO)ONC(=O)c1cc(Br)c(F)c(F)c1Nc1ccc(I)cc1Cl [Example 62, 5-Bromo-2-(2-chloro-4-iodo-phenylamino)-3,4-difluoro-N-(2-hydroxy-1,1-dimethyl-ethoxy)-benzamide] | 0.018 µM | 179 to 181 °C
15 | CC(C)(CO)ONC(=O)c1ccc(F)c(F)c1Nc1ccc(I)cc1F [Example 65, 3,4-Difluoro-2-(2-fluoro-4-iodo-phenylamino)-N-(2-hydroxy-1,1-dimethyl-ethoxy)-benzamide] | 0.014 µM | 182 to 183 °C
16 | CC(C)(CO)ONC(=O)c1cc(Cl)c(F)c(F)c1Nc1ccc(I)cc1F [Example 66, 5-Chloro-3,4-difluoro-2-(2-fluoro-4-iodo-phenylamino)-N-(2-hydroxy-1,1-dimethyl-ethoxy)-benzamide] | 0.002 µM | 178 to 180 °C
17 | COCC(O)CONC(=O)c1ccc(F)c(F)c1Nc1ccc(I)cc1C (centres unmarked) [Example 68] | 0.024 µM | 136.2 to 136.5 °C
18 | Cc1cc(I)ccc1Nc1c(C(=O)NOCC2(CO)CC2)ccc(F)c1F [Example 70, 3,4-Difluoro-N-(1-hydroxymethyl-cyclopropylmethoxy)-2-(4-iodo-2-methyl-phenylamino)-benzamide] | 0.2 µM | 165.4 to 165.6 °C

The remaining lines, values ahead:

Row | IC50 (MEK) | melting point | Structure (SMILES)
19 | 0.032 µM | 190.8 to 192.5 °C | O=C(NOCCO)c1cc(F)c(F)cc1Nc1ccc(Br)cc1F [Example 23, 2-(4-Bromo-2-fluoro-phenylamino)-4,5-difluoro-N-(2-hydroxy-ethoxy)-benzamide]
20 | 0.24 µM | 161.6 to 162.4 °C | O=C(NOCCO)c1cc(Cl)c(F)c(F)c1Nc1ccc(F)cc1F [Example 26, 5-Chloro-2-(2,4-difluoro-phenylamino)-3,4-difluoro-N-(2-hydroxy-ethoxy)-benzamide]
21 | 0.12 µM | 141.1 to 141.6 °C | O=C(NOCCO)c1ccc(F)c(F)c1Nc1ccc(F)cc1F [Example 27, 2-(2,4-Difluoro-phenylamino)-3,4-difluoro-N-(2-hydroxy-ethoxy)-benzamide]
22 | 0.12 µM | 120.8 to 122.4 °C | Cc1cc(I)ccc1Nc1cc(F)ccc1C(=O)NOCCCO [Example 28, 4-Fluoro-N-(3-hydroxy-propoxy)-2-(4-iodo-2-methyl-phenylamino)-benzamide]
23 | 0.13 µM | 158.8 to 160.8 °C | O=C(NOCCCO)c1ccc(F)cc1Nc1ccc(I)cc1Cl [Example 30]
24 | > 1 µM | 114 to 115 °C | CC1(C)OCC(CONC(=O)c2ccc(F)c(F)c2Nc2ccc(I)cc2F)O1 (centres unmarked) [Example 38, N-(2,2-Dimethyl-[1,3]dioxolan-4-ylmethoxy)-3,4-difluoro-2-(2-fluoro-4-iodo-phenylamino)-benzamide]
25 | 0.0027 µM | 173 to 175 °C | O=C(NOCC(O)CO)c1ccc(F)cc1Nc1ccc(I)cc1F (centres unmarked) [Example 42, N-(2,3-Dihydroxy-propoxy)-4-fluoro-2-(2-fluoro-4-iodo-phenylamino)-benzamide]
26 | 0.019 µM | 114 to 114.9 °C | O=C(NOCC(O)CO)c1ccc(F)c(F)c1Nc1ccc(Cl)cc1F (centres unmarked) [Example 45, 2-(4-Chloro-2-fluoro-phenylamino)-N-(2,3-dihydroxy-propoxy)-3,4-difluoro-benzamide]
27 | 0.001 µM | 111 to 114 °C | O=C(NOC(CO)CO)c1ccc(F)c(F)c1Nc1ccc(I)cc1F [Example 47, 3,4-Difluoro-2-(2-fluoro-4-iodo-phenylamino)-N-(2-hydroxy-1-hydroxymethyl-ethoxy)-benzamide]
28 | 0.0016 µM | 173 to 175 °C | O=C(NOC(CO)CO)c1cc(Cl)c(F)c(F)c1Nc1ccc(I)cc1F [Example 48, 5-Chloro-3,4-difluoro-2-(2-fluoro-4-iodo-phenylamino)-N-(2-hydroxy-1-hydroxymethyl-ethoxy)-benzamide]
29 | 0.0038 µM | 155 to 156 °C | O=C(NOC[C@H](O)CO)c1cc(Cl)c(F)c(F)c1Nc1ccc(I)cc1Cl [Example 51, 5-Chloro-2-(2-chloro-4-iodo-phenylamino)-N-[(R)-2,3-dihydroxy-propoxy]-3,4-difluoro-benzamide]
30 | 0.06 µM | 103.5 to 104 °C | C=COCCONC(=O)c1ccc(F)cc1Nc1ccc(I)cc1F [Example 58, 4-Fluoro-2-(2-fluoro-4-iodo-phenylamino)-N-(2-vinyloxy-ethoxy)-benzamide]
31 | 0.047 µM | 175 to 176 °C | Cc1cc(I)ccc1Nc1c(C(=O)NOC(C)(C)CO)ccc(F)c1F [Example 63, 3,4-Difluoro-N-(2-hydroxy-1,1-dimethyl-ethoxy)-2-(4-iodo-2-methyl-phenylamino)-benzamide]
32 | 0.013 µM | 140 to 153 °C | CC(C)(O)CONC(=O)c1ccc(F)c(F)c1Nc1ccc(I)cc1Cl [Example 64, 2-(2-Chloro-4-iodo-phenylamino)-3,4-difluoro-N-(2-hydroxy-2-methyl-propoxy)-benzamide]
33 | 0.006 µM | 156.7 to 156.9 °C | CC(C)(O)CONC(=O)c1ccc(F)c(F)c1Nc1ccc(I)cc1F [Example 67, 3,4-Difluoro-2-(2-fluoro-4-iodo-phenylamino)-N-(2-hydroxy-2-methyl-propoxy)-benzamide]
34 | 0.06 µM | 139.5 to 140.1 °C | COCC(O)CONC(=O)c1cc(Br)c(F)c(F)c1Nc1ccc(I)cc1Cl (centres unmarked) [Example 69, 5-Bromo-2-(2-chloro-4-iodo-phenylamino)-3,4-difluoro-N-(2-hydroxy-3-methoxy-propoxy)-benzamide]
35 | 0.12 µM | 152.6 to 153.9 °C | O=C(NOCC1(CO)CC1)c1cc(Br)c(F)c(F)c1Nc1ccc(I)cc1Cl [Example 71, 5-Bromo-2-(2-chloro-4-iodo-phenylamino)-3,4-difluoro-N-(1-hydroxymethyl-cyclopropylmethoxy)-benzamide]
36 | 0.019 µM | 175.2 to 175.5 °C | Cc1cc(I)ccc1Nc1c(C(=O)NOCC(O)C(F)(F)F)ccc(F)c1F (centres unmarked) [Example 72, 3,4-Difluoro-2-(4-iodo-2-methyl-phenylamino)-N-(3,3,3-trifluoro-2-hydroxy-propoxy)-benzamide]
37 | 0.08 µM | 186.9 to 187.3 °C | O=C(NOCC(O)C(F)(F)F)c1cc(Br)c(F)c(F)c1Nc1ccc(I)cc1Cl (centres unmarked) [Example 73, 5-Bromo-2-(2-chloro-4-iodo-phenylamino)-3,4-difluoro-N-(3,3,3-trifluoro-2-hydroxy-propoxy)-benzamide]
